# Test results reported in US6054432A, “Means for treating prostate hypertrophy and prostate cancer” (Asta Medica Aktiengesellschaft, priority 1997, dated 2000).
# Non-standard residues stand in square brackets, D forms with d. Residues, ends and D or L forms follow the SMILES beside them. dPhe(4-Cl) = N[C@H](Cc1ccc(Cl)cc1)C(=O)O; d2Nal = N[C@H](Cc1ccc2ccccc2c1)C(=O)O; dCit = NC(=O)NCCC[C@@H](N)C(=O)O; d3Pal = N[C@H](Cc1cccnc1)C(=O)O
# Experiments:
# [1] = test system: prostate carcinoma patients; details: cited from earlier work
# BPH patients = details: 500 μg every 12 hours for 4 weeks, cited from earlier work
# [2] = test system: benign prostate hypertrophy (BPH) patients; experiment: Clinical therapy of BPH with Cetrorelix (Example 1); format: in vivo, human; details: 4 to 8 weeks therapy regimen
# Method: Cetrorelix is administered in a dose of 0.5 mg to 2 mg daily for 4 to 8 weeks for the therapy of BPH. A dose of 5 mg to 30 mg, dispensed once per week or every 10 days also over a time period of 4 to 8 weeks as well as one every two weeks or one injection per month of 20 mg to 60 mg can also decisively improve the clinical symptoms and signs. […] The prostate volume decreases by 20 to 40% during the treatment time of 4 to 8 weeks. […] In addition, at least 30% of the patients achieve an improvement of the urine flow of 6 ml/sec with this therapy. This is almost equivalent to an improvement like that associated with the golden standard operation, and in considerably shorter time. […] These clinical benefits continue for at least 3 to 6 months after therapy. This allows a long-term therapy of BPH with only an intermittent treatment of 2 to max. 4 injection cycles over 4 to 8 weeks.
# This therapy represents a significant therapeutic advance in the treatment of BPH since it not only achieves an improvement of the clinical symptoms of BPH but also a diminution of the prostate and an improvement of the urine flow like those associated with surgery The protocols of the invention avoid the negative consequences of an operation, e.g. urine incontinence, retrograde ejaculation, blood loss with the consequence of blood transfusions and also the risks of infection associated with surgery.
# [3] = 500 μg every 12 hours, end of the 6 weeks of therapy
smiles,measurement,setting,value
CC(=O)N[C@H](Cc1ccc2ccccc2c1)C(=O)N[C@H](Cc1ccc(Cl)cc1)C(=O)N[C@H](Cc1cccnc1)C(=O)N[C@@H](CO)C(=O)N[C@@H](Cc1ccc(O)cc1)C(=O)N[C@H](CCCNC(N)=O)C(=O)N[C@@H](CC(C)C)C(=O)N[C@@H](CCCNC(=N)N)C(=O)N1CCC[C@H]1C(=O)N[C@H](C)C(N)=O [Cetrorelix] (Ac-[d2Nal][dPhe(4-Cl)][d3Pal]SY[dCit]LRP[dA]-NH2),"testosterone levels, initially","[1]; 500 μg every 12 hours for 6 weeks, all patients, initial phase",lowering in testosterone levels to a castration level
same,overall condition of the patient,[1]; [3],considerable improvement
same,testosterone values at the end of therapy,[1]; [3],at the castration levels
same,testosterone levels during treatment,"BPH patients; BPH patients, no castration values during the last three weeks",fluctuated at subnormal levels
same,"testosterone levels, initially","BPH patients; all patients, initial phase",lowering in testosterone levels to a castration level
same,prostate volume,BPH patients,distinct decrease
same,symptoms of dysuria,BPH patients,distinct decrease
same,patients achieving an improvement of the urine flow of 6 ml/sec,[2],at least 30%
same,quality of life,[2],significant improvements
same,sexual performance,[2],No limitations in sexual performance are observed
same,testosterone level,[2],"Submaximal decreases of testosterone occur, but these are above those levels associated with castration"
same,increase of the peak flow of the urine,[2]; comparable to the α-blockers,approximately 3 ml/sec
